The results in this text go back to patent US9428456B2, “1-[m-carboxamido(hetero)aryl-methyl]-heterocyclyl-carboxamide derivatives” (Actelion Pharmaceuticals Ltd., priority 2012, dated 2016).

A word on the EC50: it is the concentration giving half of the maximal effect. Lower therefore signals greater potency.

CXCR7, sequence (P25106 whole entry, the tested form may be a part): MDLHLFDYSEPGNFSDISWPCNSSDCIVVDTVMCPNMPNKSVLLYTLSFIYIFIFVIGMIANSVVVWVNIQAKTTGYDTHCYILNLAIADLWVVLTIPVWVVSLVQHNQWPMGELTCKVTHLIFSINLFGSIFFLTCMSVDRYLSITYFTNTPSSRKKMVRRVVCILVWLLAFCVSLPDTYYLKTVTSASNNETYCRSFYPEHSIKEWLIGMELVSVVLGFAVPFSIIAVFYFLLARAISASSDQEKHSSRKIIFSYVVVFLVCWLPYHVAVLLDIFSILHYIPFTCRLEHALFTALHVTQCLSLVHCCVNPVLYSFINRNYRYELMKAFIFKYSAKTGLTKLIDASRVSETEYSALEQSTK
CXCR7, sequence (P32121 whole entry partner, the tested form may be a part): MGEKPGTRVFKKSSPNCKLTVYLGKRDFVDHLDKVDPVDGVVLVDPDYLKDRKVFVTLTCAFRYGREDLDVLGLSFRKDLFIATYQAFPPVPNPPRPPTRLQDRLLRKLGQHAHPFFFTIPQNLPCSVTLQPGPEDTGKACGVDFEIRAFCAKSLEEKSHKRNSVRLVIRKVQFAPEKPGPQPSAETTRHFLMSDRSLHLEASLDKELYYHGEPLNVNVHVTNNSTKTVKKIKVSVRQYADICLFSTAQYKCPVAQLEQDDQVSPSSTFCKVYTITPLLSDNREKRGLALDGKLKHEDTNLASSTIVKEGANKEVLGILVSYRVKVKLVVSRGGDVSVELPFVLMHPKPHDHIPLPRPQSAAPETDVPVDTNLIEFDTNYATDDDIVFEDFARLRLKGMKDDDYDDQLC

The assay has as its target CXCR7 (Homo sapiens (Human), UniProt P25106). Briefly: PathHunter CHO-K1 CXCR7 b-arrestin assay (agonistic activity). It is filed as cell-based. The settings on record: PathHunter CHO-K1 CXCR7 b-arrestin cell line. The method, boiled down: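 CHO-K1 cells co-expressing ProLink-tagged CXCR7 and EA-fused β-arrestin 2 (enzyme fragment complementation); compounds added in HBSS/20 mM HEPES/0.2% BSA after 3–4 h in OPTIMEM, 90 min at 37 °C. Chemiluminescent β-gal signal read after 1 h detection at room temperature; EC50 reported as geometric mean of several measurements.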
`O=C(Cc1ccc(F)cc1Cl)Nc1cccc(CN2CCC(C(=O)NC3CCCCC3)C2)c1` (racemic) [Example 2.100, rac-1-{3-[2-(2-Chloro-4-fluoro-phenyl)-acetylamino]-benzyl}-pyrrolidine-3-carboxylic acid cyclohexylamide]: the EC50 amounted to 161 nM. `CCNC(=O)C1CCCN(Cc2cccc(NC(=O)c3cncc(C)c3)c2)CC1` (racemic) [Example 1.287] displayed an EC50 of 181 nM. Molecule `Cc1cc(CN2CCC(C(=O)NC(C)(C)C)CC2)cc(NC(=O)c2cncc(C)c2)c1` [Example 1.317] displayed a 50% effective concentration (EC50) of 76 nM. Next, `CC(c1cccc(NC(=O)c2ccc(C#N)cc2)c1)N1CCC(C(=O)NC2CCCCC2)CC1` (racemic) [Example 1.178]: 64 nM; `C[C@@H]1C[C@H](C(=O)NC2CCCCC2)CCN1Cc1cccc(NC(=O)c2cccc(C(F)(F)F)n2)c1` [Example 2.106, 6-Trifluoromethyl-pyridine-2-carboxylic acid [3-((2R,4R)-4-cyclohexylcarbamoyl-2-methyl-piperidin-1-ylmethyl)-phenyl]-amide or 6-trifluoromethyl-pyridine-2-carboxylic acid [3-((2S,4S)-4-cyclohexylcarbamoyl-2-methyl-piperidin-1-ylmethyl)-phenyl]-amide]: 49 nM. On to `CC(C)(C)NC(=O)C1CCN(Cc2cccc(NC(=O)c3cccc(C(F)(F)F)c3)c2)CC1` [Example 1.237], for which the EC50 was determined as 4 nM. Take `O=C(Nc1cccc(CN2CCC(C(=O)NC3CCCCC3)CC2)c1)c1ccc(C(F)(F)F)cc1` [Example 1.105]: it took 5 nM to reach a half-maximal effect (EC50). The value for `CC(C(=O)Nc1cccc(CN2CCC(C(=O)NC(C)(C)C)CC2)c1)c1ccccc1` (racemic) [Example 1.079] was 3 nM; that for `CCc1cncc(C(=O)Nc2cccc(CN3CCC(C(=O)NC(C)(C)C)CC3)c2)c1` [Example 1.241] was 4 nM; that for `CC(c1cccc(NC(=O)c2cnc(N3CCCC3)s2)c1)N1CCC(C(=O)NC2CCCCC2)CC1` (racemic) [Example 1.194] was 303 nM.

On to `Cc1cncc(C(=O)Nc2cccc(CN3CCCC(C(=O)NC(C)C)CC3)c2)c1` (racemic) [Example 1.289], for which a half-maximal effect (EC50) was put at 113 nM. The value for `CC(C)(C)NC(=O)C1CCN(Cc2cccc(NC(=O)c3ccc(C(F)(F)F)c[n+]3[O-])c2)CC1` [Example 1.348] was 8 nM; that for `COc1ccc(C(=O)Nc2cc(CN3CCC(C(=O)NC4CCCCC4)CC3)ccc2Cl)cc1` [Example 1.159] was 14 nM.

In the case of `CC(C)(C)NC(=O)C1CCN(Cc2cccc(NC(=O)C3CCc4ccccc43)c2)CC1` (racemic) [Example 1.267], the half-maximal effective concentration (EC50) amounted to 2 nM. As for `Cc1cccc(C(=O)Nc2cccc(CN3CCC(C(=O)NC4CCCCC4)CC3)c2)c1C` [Example 1.109], it took 40 nM to reach a half-maximal effect (EC50). `COc1cccc(CC(=O)Nc2cccc(CN3CCC(C(=O)NC4CCCCC4)CC3)c2)c1` [Example 1.047] returned a half-maximal effective concentration (EC50) of 17 nM. The value for `COc1cc(C(=O)Nc2cccc(CN3CCC(C(=O)NC4CCCCC4)CC3)c2)nc(OC)n1` [Example 1.062] was 57 nM; that for `Cc1ccncc1C(=O)Nc1cccc(CN2CCC(C(=O)NC3CCCCC3)CC2)c1` [Example 1.063] was 237 nM. The value for `CC(C)(C)NC(=O)C1CCN(Cc2cccc(NC(=O)Cc3ncccn3)c2)CC1` [Example 1.264] was 90 nM; that for `O=C(Nc1ccc(Cl)c(CN2CCC(C(=O)NC3CCCC3)CC2)c1)c1ccc(F)cc1` [Example 1.219] was 0.9 nM; that for `COc1ccc(CN2CCC(C(=O)NC(C)(C)C)CC2)cc1NC(=O)c1cccc(C(F)(F)F)n1` [Example 1.304] was 4 nM. `CC(C)Cc1ccc(C(=O)Nc2cccc(CN3CCC(C(=O)NC4CCCCC4)CC3)c2)cc1` [Example 1.041]: the EC50 was determined as 43 nM. `O=C(Nc1cccc(CN2CCC(C(=O)NC3CCCCC3)CC2)c1)c1cc(Cl)cc(Cl)c1` [Example 1.139] came in with an EC50 of 22 nM. Next, `O=C(Nc1cccc(CN2CCC(C(=O)NC3CCCCC3)CC2)c1)c1n[nH]c2ccccc12` [Example 1.008]: 35 nM; `O=C(Nc1cccc(CN2CCC(C(=O)NC3CCCCC3)CC2)c1)c1ccc(Cl)c(Cl)c1` [Example 1.140]: 5 nM; `O=C(Nc1cccc(CN2CCC(C(=O)NC3CCCCC3)CC2)c1)c1c[nH]c2ccccc12` [Example 1.027]: 42 nM. For `CCC(C)(C)NC(=O)C1CCN(Cc2cccc(NC(=O)c3ccc(Cl)c[n+]3[O-])c2)CC1` [Example 4.025, 5-Chloro-1-oxy-pyridine-2-carboxylic acid {3-[4-(1,1-dimethyl-propylcarbamoyl)-piperidin-1-ylmethyl]-phenyl}amide], the EC50 is 2 nM. Next, `CC(C)(C)NC(=O)C1CCN(Cc2cccc(NC(=O)c3cnc4cc(Cl)ccc4c3)c2)CC1` [Example 1.236]: 5 nM. `COc1ccc(CN2CCC(C(=O)NC(C)(C)C)CC2)cc1NC(=O)c1cncc(C)c1` [Example 1.305] had a concentration for a half-maximal effect (EC50) of 7 nM.

Molecule `O=C(Nc1cccc(CN2CCC(C(=O)NC3CCCCC3)CC2)c1)c1coc2ccccc12` [Example 1.028] showed a half-maximal effective concentration (EC50) of 4 nM. The value for `CC(c1cccc(NC(=O)c2ccncc2)c1)N1CCC(C(=O)NC2CCCCC2)CC1` (racemic) [Example 1.176] was 173 nM; that for `CC(c1cccc(NC(=O)c2ccncn2)c1)N1CCC(C(=O)NC2CCCCC2)CC1` (racemic) [Example 1.193] was 23 nM. Molecule `O=C(Nc1cccc(CN2CCC(C(=O)NC3CCCCC3)CC2)c1)c1cccc2ccncc12` [Example 1.010] displayed an EC50 of 68 nM.

`CC(c1cccc(NC(=O)c2cccc(C#N)c2)c1)N1CCC(C(=O)NC2CCCCC2)CC1` (racemic) [Example 1.179] displayed a half-maximal effective concentration (EC50) of 78 nM. `O=C(Nc1cccc(CN2CCC(C(=O)NC3CCCCC3)CC2)c1)c1ccc(F)cn1` [Example 1.057] yielded an EC50 of 0.8 nM.

Turning to `O=C(Nc1cccc(CN2CCC(C(=O)NC3CCCCC3)CC2)c1)c1ccsc1` [Example 1.012], the EC50 was found to be 4 nM. Next, `O=C(Nc1ccc(Cl)c(CN2CCC(C(=O)NC3CCCC3)CC2)c1)c1ccc(C(F)(F)F)cn1` [Example 1.220]: 1 nM. Next, `O=C(Nc1cccc(CN2CCC(C(=O)NC3CCCCC3)CC2)c1)c1ncccc1Br` [Example 1.085]: 1 nM; `O=C(Nc1cccc(CN2CCC(C(=O)NC3CC3)CC2)c1)c1ccc(F)cc1` [Example 1.199]: 3 nM.

`CC(C)(C)NC(=O)C1CCN(Cc2cccc(NC(=O)C3CNc4ccccc43)c2)CC1` (racemic) [Example 1.265] returned a concentration giving a half-maximal response (EC50) of 15 nM. In the case of `COc1cncc(C(=O)Nc2cccc(CN3CCC(C(=O)NC(C)(C)C)CC3)c2)c1` [Example 4.014, N-[3-(4-tert-Butylcarbamoyl-piperidin-1-ylmethyl)-phenyl]-5-methoxy-nicotinmide], the EC50 came to 8 nM. `Cc1cncc(C(=O)Nc2cccc(CN3CCC(C(=O)NC(C)(C)C)C3)c2)c1` (racemic) [Example 2.096, rac-N-[3-(3-tert-Butylcarbamoyl-pyrrolidin-1-ylmethyl)-phenyl]-5-methyl-nicotinamide] yielded a concentration giving a half-maximal response (EC50) of 28 nM. In the case of `C=CC(=O)Nc1cccc(CN2CCC(C(=O)NC(C)(C)C)CC2)c1` [Example 1.336], the EC50 came out at 83 nM. In turn, `O=C(Nc1cccc(CN2CCC(C(=O)NC3CCCCC3)CC2)c1)c1ccc(Cl)s1` [Example 1.282] yielded an EC50 of 5 nM. The molecule `Cc1cncc(C(=O)Nc2cccc(CN3CC[C@H](C(=O)NC(C)(C)C)C[C@@H]3C)c2)c1` (racemic) [Example 2.103, rac-N-[3-((2S*,4S*)-4-tert-Butylcarbamoyl-2-methyl-piperidin-1-ylmethyl)-phenyl]-5-methyl-nicotinamide] showed an EC50 of 17 nM.

As for `CC(c1cccc(NC(=O)c2ccccc2)c1)N1CCC(C(=O)NC2CCCCC2)CC1` (centres unmarked) [Example 1.165], the EC50 came to 23 nM. Next, `O=C(CC1Cc2ccccc2C1)Nc1cccc(CN2CCC(C(=O)NC3CCCCC3)CC2)c1` [Example 1.052]: 36 nM. `CC(C)(C)NC(=O)C1CCN(Cc2cccc(NC(=O)c3ccc(S(C)(=O)=O)cc3)c2)CC1` [Example 1.351] came in with an EC50 of 176 nM. Regarding `COc1c(CN2CCC(C(=O)NC(C)(C)C)CC2)cccc1NC(=O)c1ccc(F)cc1` [Example 1.321], it took 6 nM to reach a half-maximal effect (EC50). `CC(c1cccc(NC(=O)c2ccc(N3CCCC3)cn2)c1)N1CCC(C(=O)NC2CCCCC2)CC1` (racemic) [Example 1.188] gave a half-maximal effective concentration (EC50) of 215 nM. `O=C(Nc1cccc(CN2CCC(C(=O)NC3CCCCC3)CC2)c1)c1c(F)cccc1F` [Example 1.127]: the response was half-maximal at 36 nM (EC50). The value for `O=C(Nc1cccc(CN2CCC(C(=O)NC3CCCCC3)CC2)c1)c1ncccn1` [Example 1.087] was 36 nM; that for `Cc1ccc(C(=O)Nc2cccc(C(C)N3CCC(C(=O)NC4CCCCC4)CC3)c2)cn1` (racemic) [Example 1.181] was 148 nM. As to `Cc1cc(C(=O)Nc2cccc(C(C)N3CCC(C(=O)NC4CCCCC4)CC3)c2)ccn1` (racemic) [Example 1.184], the EC50 stood at 33 nM. As for `CCC(C)(C)NC(=O)C1CCN(Cc2cccc(NC(=O)c3ccc(C(F)(F)F)cn3)c2)CC1` [Example 1.341], the EC50 was 1 nM. Next, `O=C(Nc1ccc(Cl)c(CN2CCC(C(=O)NC3CCCC3)CC2)c1)c1ccc2ncccc2c1` [Example 1.221]: 1 nM; `CN(C)c1cccc(C(=O)Nc2cccc(CN3CCC(C(=O)NC4CCCCC4)CC3)c2)c1` [Example 1.144]: 73 nM. The value for `O=C(Nc1cccc(CN2CCC(C(=O)NC3CCCC3)CC2)c1)c1cc(C(F)(F)F)ccn1` [Example 1.216] was 7 nM. Take `O=C(Nc1cccc(CN2CCC(C(=O)NC3CCCCC3)CC2)c1)c1cc2cccnc2[nH]1` [Example 1.146]: the response was half-maximal at 8 nM (EC50).
